Experimental findings from ChEMBL document CHEMBL5620415, “Design, synthesis and anti-hepatic fibrosis activity of novel diphenyl vitamin D receptor agonists” (Eur J Med Chem, 2023) are described below.

Molecules are shown by their SMILES. Active and inactive are the calls of the source. The calls are words filed in the database; no cut-off is given here.

By IC50 is commonly meant the midpoint of a concentration-inhibition curve. A lower IC50 goes with inhibition by little substance.

The nature of data set [1]: Cytotoxicity against human LX-2 cells by CCK-8 assay. The class given is toxicity, cell-based. (Formazan colour is commonly taken as a measure of viable cells.)
Data set [2] deals with T1, Vitamin D3 receptor (Homo sapiens) (UniProt P11473).
T1 sequence (whole entry): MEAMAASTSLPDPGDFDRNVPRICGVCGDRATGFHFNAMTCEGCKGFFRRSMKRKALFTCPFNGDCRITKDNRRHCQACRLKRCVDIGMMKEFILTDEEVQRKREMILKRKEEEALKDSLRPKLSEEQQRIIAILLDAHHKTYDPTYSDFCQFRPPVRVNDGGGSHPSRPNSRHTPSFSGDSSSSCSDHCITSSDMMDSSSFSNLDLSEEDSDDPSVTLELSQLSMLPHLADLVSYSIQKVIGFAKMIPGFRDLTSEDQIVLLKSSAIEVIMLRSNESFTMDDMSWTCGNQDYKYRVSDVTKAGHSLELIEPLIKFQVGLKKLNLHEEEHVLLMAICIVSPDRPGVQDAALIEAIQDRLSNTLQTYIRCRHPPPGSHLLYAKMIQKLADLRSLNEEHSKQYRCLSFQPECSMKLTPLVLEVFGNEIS
Nature of the data set: Agonist activity at Vitamin D receptor in human LX-2 cells assessed as transcriptional activity by measuring induction of CYP24A expression at 0.5 uM by RT-qPCR analysis relative to control. The class given is cell-based.

Data set [3] deals with T1, Vitamin D3 receptor (Homo sapiens). Description: Binding affinity to human full-length Vitamin D receptor assessed as relative binding affinity at 1 uM incubated for 2 hrs by fluorescence polarization based competitive binding assay relative to calcipotriol. A general note: Polarisation of emitted light reports the rotation of a fluorescent probe.

`C=CCC(O)(CC=C)CCCOc1cccc(CCc2ccc(CO)c(CO)c2)c1` displayed an IC50 in data set [1] greater than 30 µM. The result in data set [2] was inactive. In addition, the RBA in data set [3] was determined as 35.3%.
In turn, `CCC(O)(CC)CCCCCOc1cccc(/C=C/c2ccc(CO)c(CO)c2)c1` showed an IC50 in data set [1] greater than 30 µM. The RBA in data set [3] worked out at 33.5%.
`CCC(O)(CC)CCOc1cccc(/C=C/c2ccc(CO)c(CO)c2)c1` gave an IC50 in data set [1] greater than 30 µM. In addition, the RBA in data set [3] turned out to be 38.1%.
The matching figures for `CCN(CC)C(=O)CCCOc1cccc(COc2ccc(CO)c(CO)c2)c1`: greater than 30 µM and 8.67%.
For `OCc1ccc(/C=C/c2cccc(OCCCN3CCOCC3)c2)cc1CO`, in that order: greater than 30 µM and 34.1%.
`CCCC(Oc1ccc(CO)c(CO)c1)c1cccc(OCCCC(O)(CC)CC)c1` (stereo not drawn) registered an IC50 in data set [1] greater than 30 µM. Besides, the RBA in data set [3] (filed as agonist) turned out to be 46.2%.
In data set [1], `CN1CCN(C(=O)CCCOc2cccc(COc3ccc(CO)c(CO)c3)c2)CC1` returned an IC50 greater than 30 µM. Moreover, in data set [3], the RBA worked out at 30.1%.
The matching figures for `O=C(O)CCCOc1cccc(/C=C/c2ccc(CO)c(CO)c2)c1`: greater than 30 µM and 37%.
Take `CC(C)(O)CCCOc1cccc(/C=C/c2ccc(CO)c(CO)c2)c1`: the IC50 in data set [1] was greater than 30 µM. Moreover, in data set [3] (filed as agonist), the RBA is 44.5%.
Take `CC(C)(O)CCCOc1cccc(CCc2ccc(CO)c(CO)c2)c1`: the IC50 in data set [1] was greater than 30 µM. Also, the outcome in data set [2] was inactive. The RBA in data set [3] was 14.4%.
On to `O=C(CCCOc1cccc(COc2ccc(CO)c(CO)c2)c1)N1CCCCC1`, for which the IC50 in data set [1] was greater than 30 µM. For the same compound, the RBA in data set [3] amounted to 24.9%.
For `CC(C)(O)CCCCOc1cccc(COc2ccc(CO)c(CO)c2)c1`, the IC50 in data set [1] was greater than 30 µM. Moreover, the RBA in data set [3] amounted to 9.25%.
For `COC(=O)CCCOc1cccc(/C=C/c2ccc(CO)c(CO)c2)c1`, in that order: greater than 30 µM and 34.1%.
For `COC(=O)CCCCOc1cccc(COc2ccc(CO)c(CO)c2)c1`, the IC50 in data set [1] was greater than 30 µM. Moreover, the RBA in data set [3] (filed as agonist) was 45.7%.
The matching figures for `CCCCC(Oc1ccc(CO)c(CO)c1)c1cccc(OCCCC(O)(CC)CC)c1` (stereo not drawn): greater than 30 µM and 42.2%.
In data set [1], `CC(C)(O)CCCOc1cccc(COc2ccc(CO)c(CO)c2)c1` registered an IC50 greater than 30 µM. Also, the RBA in data set [3] stood at 27.2%.
On to `C=CCC(O)(CC=C)CCCOc1cccc(COc2ccc(CO)c(CO)c2)c1`, for which the half-maximal inhibitory concentration (IC50) in data set [1] was greater than 30 µM. Moreover, the RBA in data set [3] turned out to be 20.2%.
As for `CCC(O)(CC)CCCCOc1ccc(/C=C/c2ccc(CO)c(CO)c2)cc1`, the IC50 in data set [1] is greater than 30 µM. The RBA in data set [3] was 31.2%.
The matching figures for `OCc1ccc(/C=C/c2ccc(OCCCN3CCOCC3)cc2)cc1CO`: greater than 30 µM and 32.4%.
For `CC(C)(O)CCCCCOc1cccc(COc2ccc(CO)c(CO)c2)c1`, in that order: greater than 30 µM and 27.2%.
`CCN(CC)CCCOc1cccc(/C=C/c2ccc(CO)c(CO)c2)c1` registered an IC50 in data set [1] greater than 30 µM. The RBA in data set [3] (filed as agonist) was 42.2%.
Compound `COC(=O)CCCCCOc1cccc(COc2ccc(CO)c(CO)c2)c1` showed an IC50 in data set [1] greater than 30 µM. For the same compound, the RBA in data set [3] worked out at 29.5%.
For `OCCCCOc1cccc(/C=C/c2ccc(CO)c(CO)c2)c1`, in that order: greater than 30 µM and 11.6%.
Consider `CCC(O)(CC)CCCCOc1cccc(/C=C/c2ccc(CO)c(CO)c2)c1`, for which the IC50 in data set [1] was greater than 30 µM. The RBA in data set [3] came to 23.1%.
In turn, `CCC(O)(CC)CCCOc1cccc(CCc2ccc(CO)c(CO)c2)c1` yielded an IC50 in data set [1] greater than 30 µM. In addition, the outcome in data set [2] was inactive. Also, in data set [3], the RBA amounted to 28.3%.
The compound `C=CCC(O)(CC=C)CCCOc1cccc(/C=C/c2ccc(CO)c(CO)c2)c1` came in with an IC50 in data set [1] greater than 30 µM. The RBA in data set [3] (filed as agonist) came out at 40.5%.
For `CCN(CC)CCCOc1ccc(/C=C/c2ccc(CO)c(CO)c2)cc1`, in that order: greater than 30 µM and 49.7%.
For the compound `CCC(O)(CC)CCCCOc1cccc(COc2ccc(CO)c(CO)c2)c1`, the IC50 in data set [1] was greater than 30 µM. Also, in data set [3], the RBA came to 35.8%.
`CCC(O)(CC)CCCCOc1ccc(CCc2ccc(CO)c(CO)c2)cc1`: the half-inhibitory concentration (IC50) in data set [1] is greater than 30 µM. Moreover, the result in data set [2] was inactive. Further, the RBA in data set [3] (filed as agonist) worked out at 44.5%.
Take `C=CCC(O)(CC=C)CCCCCOc1cccc(COc2ccc(CO)c(CO)c2)c1`: the IC50 in data set [1] was greater than 30 µM. Further, in data set [2] (filed as agonist), the outcome was Active. Further, in data set [3] (filed as agonist), the RBA was 46.2%.
In turn, `OCCCCCOc1cccc(/C=C/c2ccc(CO)c(CO)c2)c1` returned an IC50 in data set [1] greater than 30 µM. Besides, the RBA in data set [3] stood at 5.78%.
For `OCCCCCOc1ccc(CCc2ccc(CO)c(CO)c2)cc1`, the IC50 in data set [1] is greater than 30 µM. The outcome in data set [2] was inactive. Moreover, the RBA in data set [3] (filed as agonist) came out at 46.2%.
In turn, `CN1CCN(CCCOc2ccc(/C=C/c3ccc(CO)c(CO)c3)cc2)CC1` showed an IC50 in data set [1] greater than 30 µM. In addition, the RBA in data set [3] stood at 21.4%.
The matching figures for `O=C(CCCOc1cccc(COc2ccc(CO)c(CO)c2)c1)N1CCOCC1`: greater than 30 µM and 17.9%.
Consider `CC(O)CCCOc1cccc(/C=C/c2ccc(CO)c(CO)c2)c1` (stereo not drawn), for which, in data set [1], the IC50 was greater than 30 µM. In addition, in data set [3], the RBA came to 8.67%.
In data set [1], `CC(C)(O)CCCCOc1ccc(CCc2ccc(CO)c(CO)c2)cc1` showed an IC50 greater than 30 µM. Besides, in data set [2], the outcome was inactive. Also, the RBA in data set [3] stood at 11.6%.
Take `OCCCCOc1cccc(COc2ccc(CO)c(CO)c2)c1`: the IC50 in data set [1] is greater than 30 µM. Besides, the RBA in data set [3] (filed as agonist) came out at 41.6%.
`OCc1ccc(/C=C/c2cccc(OCCCC(O)(c3ccccc3)c3ccccc3)c2)cc1CO` came in with an IC50 in data set [1] greater than 30 µM. Also, the RBA in data set [3] was found to be 23.7%.
For `OCCCCCOc1ccc(/C=C/c2ccc(CO)c(CO)c2)cc1`, in that order: greater than 30 µM and 36.4%.
In data set [1], `CCN(CC)CCCOc1cccc(COc2ccc(CO)c(CO)c2)c1` registered an IC50 greater than 30 µM. Moreover, the RBA in data set [3] (filed as agonist) came out at 49.7%.
In the case of `COC(=O)CCCOc1cccc(COc2ccc(CO)c(CO)c2)c1`, the IC50 in data set [1] was greater than 30 µM. Moreover, in data set [3], the RBA was 19.6%.
For `OCCCCCCOc1cccc(COc2ccc(CO)c(CO)c2)c1`, in that order: greater than 30 µM and 9.25%.
In turn, `CCC(O)(CC)CCCCCOc1cccc(COc2ccc(CO)c(CO)c2)c1` came in with an IC50 in data set [1] greater than 30 µM. The RBA in data set [3] worked out at 3.47%.
For `CCC(O)(CC)CCCOc1cccc(C(Oc2ccc(CO)c(CO)c2)C(C)C)c1` (stereo not drawn), the IC50 in data set [1] was greater than 30 µM. Moreover, the RBA in data set [3] was 36.4%.
`C=CCC(O)(CC=C)CCCCOc1ccc(CCc2ccc(CO)c(CO)c2)cc1` came in with an IC50 in data set [1] greater than 30 µM. In data set [2], the outcome was inactive. Further, in data set [3], the RBA turned out to be 16.2%.
On to `OCCCCCOc1cccc(COc2ccc(CO)c(CO)c2)c1`, for which the IC50 in data set [1] was greater than 30 µM. In addition, the RBA in data set [3] amounted to 9.83%.
For `O=C(O)CCCOc1cccc(COc2ccc(CO)c(CO)c2)c1`, in that order: greater than 30 µM and 9.25%.
In data set [1], `OCc1ccc(/C=C/c2cccc(OCCCC(F)(F)F)c2)cc1CO` registered an IC50 greater than 30 µM. In data set [2] (filed as agonist), the result was Active. Also, the RBA in data set [3] was 30.1%.
As to `CCC(O)(CC)CCCOc1cccc(C(C)Oc2ccc(CO)c(CO)c2)c1` (stereo not drawn), in data set [1], the IC50 is greater than 30 µM. The RBA in data set [3] (filed as agonist) came out at 45.1%.
On to `CCC(O)(CC)CCCOc1cccc(COc2ccc(CO)c(CO)c2)c1`, for which the IC50 in data set [1] is greater than 30 µM. Also, in data set [2] (filed as agonist), the result was Active. Further, in data set [3] (filed as agonist), the RBA was 43.4%.
Compound `OCCCCOc1cccc(CCc2ccc(CO)c(CO)c2)c1` returned an IC50 in data set [1] greater than 30 µM. For the same compound, the outcome in data set [2] was inactive. Besides, in data set [3], the RBA was 32.4%.
